Measurements as given in US4443619A, “Chlorocitric acids” (Hoffmann-La Roche Inc., priority 1981, dated 1984).
Structures can show the parent of a compound that is named as a salt.

How the values were obtained:
Stomach Emptying = assay: Effect on stomach emptying ([14C]glucose load) in rats (Example 25); type: in vivo; conditions: 0.33 mmoles/kg oral, 60 min after [14C]glucose load, mean ± S.E.
Method: Rats were trained to consume a 3 hr 70% glucose meal from 8 a.m. to 11 a.m. daily. On the experimental day, compounds were administered orally by intubation 30 min before a [^14 C]glucose load was given also by intubation. […] Sixty minutes later the rats were killed by decapitation; blood and stomachs were collected on ice.
Data are expressed as follows: dpm×10^3 per ml of serum and dpm×10^3 per stomach.

[1] = Effect of stereoisomers of chlorocitric acid on food consumption in meal-fed rats (Example 14); type: in vivo, Charles River female rats; conditions: mean ± S.E.
Method: Animals were fasted 48 hr, then meal-fed the 70% glucose diet described by A. C. […] Following 5 to 12 days alimentation on the meal-feeding regimen, rats were dosed with the appropriate compounds orally by intubation 1/2 hr before the 3 hr meal. Food cups were weighed immediately after the meal. The control group consisted of 5 to 10 rats, while the experimental group consisted of 4 to 6 rats.

[2] = Anorectic activities of stereoisomers: 3-day food consumption and body weight gain in meal-fed rats; type: in vivo, Charles River female rats; conditions: 1.32 mmoles/kg oral, 3 days, mean ± S.E.
Method: Charles River female rats (Charles River Breeding Laboratories, Wilmington, Mass.), weighing 196 to 210 g, were individually housed in wire-bottomed cages in a temperature-regulated (22° C.) light-controlled room (12 hr light, 6 a.m. to 6 p.m. and 12 hr dark, 6 p.m. to 6 a.m.). Animals were fasted 48 hr, then meal-fed a 70% glucose diet from 8 to 11 a.m. Following 5 to 12 days alimentation on the meal-feeding regimen, rats were dosed with the appropriate compounds orally by intubation 1/2 hr before the 3 hr meal for 3 days. The total food consumption and body weight gained during the 3 day period were determined. The control group consisted of 16 rats, while the experimental group consists of 8 rats.

[3] = 0.66 mmoles/kg oral, control 8.2 ± 1.2
[4] = 2.63 mmoles/kg oral, control 13.5 ± 0.8

Row | SMILES | Serum, total per ml (Stomach Emptying) [dpm × 10^3] | Stomach Contents, total per stomach (Stomach Emptying) [dpm × 10^3] | Food consumption [1, 3] [g] | Food consumption [1, 4] [g] | 3-Day Body Weight Gain [2] [g] | 3-Day Food Consumption [2] [g]
1 | O=C(O)CC(O)(CC(=O)O)C(=O)O [Trisodium Citrate, reference compound] | 6.4 ± 0.1 | 1180 ± 208 | – | – | – | –
2 | O=C(O)C[C@@](O)(C(=O)O)[C@H](Cl)C(=O)O [(+)-erythro-Chlorocitric acid, (+)-erythro-chlorocitric acid] | 5.0 ± 0.4 | 1832 ± 160 | 8.1 ± 1.6 | 10.5 ± 0.8 | -1.5 ± 2.3 | 31.8 ± 2.3
3 | O=C(O)C[C@](O)(C(=O)O)[C@@H](Cl)C(=O)O [(-)-erythro-Chlorocitric acid, (-)-erythro-chlorocitric acid] | 5.1 ± 0.4 | 1491 ± 232 | 7.0 ± 1.9 | 7.2 ± 1.5 | -4.8 ± 3.2 | 24.5 ± 1.8
